Experimental data published in patent US8252748B2, “Peptide derived from neurotensin receptor 3 and use thereof in the treatment of psychiatric diseases” (Centre National de la Recherche Scientifique—CNRS, priority 2007, dated 2012).
No end group written: not given here.

Columns and labels:
C57BL6/J mice [1] = assay: Kainate-induced epileptic seizures; assay type: in vivo, mouse; settings: IP 100 μl at 10^−5 M; kainate 30 mg/kg IP; 90 minutes after kainate; 10 mice per group (5 in saline group)
Protocol: In this experiment, the mice used were C57BL6/J, […], which received an intraperitoneal injection of 100 μl of physiological saline solution and a “PE 10^−5 M” group, in which the mice received an intraperitoneal injection of 100 μl of a solution containing the peptide of the invention at a concentration of 10^−5M. In each of the experimental groups, epileptic seizures were induced by intraperitoneal injection of 100 μl of kainate at a rate of 30 mg/kg. Observation of the stage of epileptic seizure was carried out 90 minutes after injection of kainate. This was based on observation of the behavior of the mice.
The different stages of epileptic seizure are presented in the document of Tsirka S. E., Gualandris, A., Amaral, D. G., Strickland, S. “Excitotoxin-induced neuronal degeneration and seizure are mediated by tissue plasminogen activator”, Nature, 377: 340-344 (1995) (26).
6 stages are defined for describing the intensity of an epileptic attack: • Stage 1: immobility • Stage 2: movements of the head and of the nape • Stage 3: unilateral clonic activity • Stage 4: bilateral clonic activity • Stage 5: generalized convulsions • Stage 6: death of the animal
Statistical analysis was performed by a two-factor ANOVA test followed by the post-hoc test.

mouse (C57Black/J) = assay: Forced swimming test (FST); assay type: in vivo
From the text: The inventors conducted three types of behavioral experiments that are regarded as classical for determining the antidepressant activity of a substance (Nestler E. J., Gould E., Manji H., Buncan M., Duman R. S., Greshenfeld H. K., Hen, R. et al. “Preclinical models: status of basic research in depression” Biol Psychiatry. 15, 503-528 (2002) (20) and Cryan, J. & Holmes, A. “The ascent of mouse: advances in modeling human depression and anxiety” Nat Rev Drug Discov. 4, 775-790 (2005) (21)). The effects of the propeptide of the present invention were compared with those of the saline solution in which it is dissolved and with those of fluoxetine, one of the most-used antidepressants in clinical practice. The mouse strain used is C57Black/J strain. TREK-1^−/− mice were also measured in these various tests.
The propeptide is dissolved in 0.9% NaCl saline solution to the desired concentrations: 10^−5 M, 10^−6 M, 10^−7 M and […]. Different volumes are injected depending on the technique used: • intracerebroventricular: 5 μl • intravenous: 100 μl • intraperitoneal: 100 μl
For the ICV injections, a Hamilton syringe (Fisher Bioblock) (trademark) of 10 μl is used, and in the case of IV or IP injections, a needle of 0.45×12 mm is used.
A. Forced Swimming Test (FST) (Cryan & Holmes, 2005 (21)) […]

C57BL6/J mice [2] = assay: Intake of food and drinking water after long-term treatment; assay type: in vivo, mouse; settings: daily IP 100 μl at 10^−5 M for 15 days; 6 and 72 hours after end of treatment
Protocol: The intake of food and of drinking water was also measured. Two experimental groups of C57BL6/J mice (n=10 per group) were used: the first group received an intraperitoneal injection daily for 15 days of 100 μl of physiological saline solution (“PHYS SALINE”), the second group received an intraperitoneal injection daily for 15 days of 100 μl of a solution containing the peptide of sequence ID No. 2 at a concentration of 10^−5M (“PE 10^−5 M”).
These measurements were taken 6 and 72 hours after the end of long-term treatment.
The difference was evaluated using the Student t test.

APLPRWSGPIGVSWGLR [propeptide, APLPRWSGPIGVSWGLR]
number of animals that reached stage 5 (generalized convulsions) (C57BL6/J mice [1]): 2 animals
effect on immobility time (mouse (C57Black/J); ICV, IV or IP injection, 30 min after injection): comparable to those produced by fluoxetine
crossing of the blood-brain barrier (BBB) (mouse (C57Black/J); inferred from activity by intravenous or intraperitoneal as well as central route): easily crosses the blood-brain barrier
food intake (C57BL6/J mice [2]): does not have a significant effect
intake of drinking water (C57BL6/J mice [2]): no significant difference
